The values that follow come from publication PMC5090206, “Fluselenamyl: A Novel Benzoselenazole Derivative for PET Detection of Amyloid Plaques (Aβ) in Alzheimer’s Disease” (Scientific Reports, 2016).

pKd: −log10 of the molar value.

The assay deals with AD homogenates (Homo sapiens, UniProt P05067). The experiment in a line: Saturation binding of [18F]-9 with AD homogenates. As to the method:
For assessing the ability of [^18F]-9 to bind Aβ plaques; binding assays with either AD homogenates or preformed Aβ1–42 aggregates were performed in 30 mM Tris, pH 7.4 buffer supplemented with 0.1% BSA[39]. Nonspecific binding was determined in the presence of 5 (1 μM) as a competitor.
Scientific Reports Version of August 4, 2016 other neurodegenerative diseases (SI, Figure 4A & 4B). Sections were visualized, processed, and analyzed using a Pascal confocal microscope.
Preparation of Human Brain Homogenates.
Well-established literature procedures were used for preparation of AD homogenates. 11,12 Grey matter was isolated from frozen postmortem frontal cortex tissue by dissection with a scalpel. […]
Binding assays were performed using previously described methods.11 Briefly, a fixed concentration (0.25 µM/well) of Aβ1–42 fibrils was incubated for 1 h at 37 °C with increasing concentrations of [18F]-9 (0.1 nM-15 nM) in 30 mM Tris-HCl pH 7.4, 0.1% BSA in a reaction volume of 150 µl. […] The exact hot:cold ([18F]-9 : 5) ratio was measured in each experiment by counting an aliquot of a sample (2 µl) of the radioligand preparation in a scintillation counter. Binding of [18F]-9 to human brain homogenates was assessed by incubating samples of insoluble fraction (1.25 µg insoluble protein/well) from AD subjects, with increasing concentrations of [18F]-9 (0.1nM-18 nM) for 1 h at 37 °C. Nonspecific binding was determined in parallel experiments in the presence of 5 (1 µM) as a competitor. […] Glass fiber filters containing the bound ligand were mixed with Optiphase Supermix scintillation cocktail (150µl; PerkinElmer) and counted immediately.
All data were obtained in triplicate and analyzed by curve fitting to a one-site binding model using nonlinear regression employing Graphpad Prism software (version 4.0) to determine Kd and Bmax values.
Bmax values were calculated in pmol/gram wet weight of brain tissue. […]

Sequence of AD homogenates (P05067 672-711 limits assumed): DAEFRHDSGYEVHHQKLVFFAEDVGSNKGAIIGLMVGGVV

In the case of `CN(C)c1ncc(/C=C\c2nc3cc(OCC[18F])ccc3[se]2)cn1` [[^18F]-9], the Bmax was found to be 546 pmol/g wet wt and the “binding affinity higher than approved FDA tracers” value was 2–10 fold. The negative logarithm of the Kd (pKd) (30 mM Tris pH 7.4, 0.1% BSA, one-site model) is 8.77.
